# Measurements from patent publication US20250059183A1, “PYRIDINE[4,3-D]PYRIMIDINE COMPOUND AS TLR7/8 AGONIST” (SHANGHAI VISONPHARMA CO., LTD., priority 2021, published 2025).
# Assays:
# human TLR8 = target: T1, human TLR8 (Homo sapiens, UniProt Q9NR97); test: HEK-Blue hTLR8 SEAP reporter gene agonist assay; type: cell-based; conditions: HEK-Blue hTLR8 cells, 16 to 22 hours incubation
# T1 construct: host or cells: HEK-Blue hTLR8 (HEK293-derived reporter cells)
# T1 sequence (Q9NR97 27-1041): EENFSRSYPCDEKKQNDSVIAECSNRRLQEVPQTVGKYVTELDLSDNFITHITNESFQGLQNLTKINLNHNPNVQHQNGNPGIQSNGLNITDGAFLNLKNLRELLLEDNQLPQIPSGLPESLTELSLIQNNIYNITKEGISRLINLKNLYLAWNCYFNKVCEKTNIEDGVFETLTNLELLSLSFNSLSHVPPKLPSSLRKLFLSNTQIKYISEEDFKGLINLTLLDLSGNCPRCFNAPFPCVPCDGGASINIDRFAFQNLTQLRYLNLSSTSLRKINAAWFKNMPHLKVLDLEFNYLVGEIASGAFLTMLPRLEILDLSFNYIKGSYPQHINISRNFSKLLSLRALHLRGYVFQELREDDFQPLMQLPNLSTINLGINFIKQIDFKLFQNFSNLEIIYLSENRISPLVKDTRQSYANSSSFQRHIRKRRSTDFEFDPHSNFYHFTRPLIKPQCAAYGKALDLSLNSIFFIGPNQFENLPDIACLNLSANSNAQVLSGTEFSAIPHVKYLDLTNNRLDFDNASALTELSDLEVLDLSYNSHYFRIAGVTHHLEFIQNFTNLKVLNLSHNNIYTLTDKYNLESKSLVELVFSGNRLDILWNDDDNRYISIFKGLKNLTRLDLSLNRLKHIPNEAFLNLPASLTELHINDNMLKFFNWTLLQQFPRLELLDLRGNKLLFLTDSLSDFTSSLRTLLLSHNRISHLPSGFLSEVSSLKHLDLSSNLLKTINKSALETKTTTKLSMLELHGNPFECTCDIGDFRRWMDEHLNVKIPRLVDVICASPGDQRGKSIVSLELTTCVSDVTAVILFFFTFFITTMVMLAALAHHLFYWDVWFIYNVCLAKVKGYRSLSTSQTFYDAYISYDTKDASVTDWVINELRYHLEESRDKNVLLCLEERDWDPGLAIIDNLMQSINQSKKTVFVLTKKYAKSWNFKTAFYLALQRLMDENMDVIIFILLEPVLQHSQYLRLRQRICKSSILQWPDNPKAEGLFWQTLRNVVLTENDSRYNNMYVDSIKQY
# Summary of the method: (§1)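 HEK-Blue cells stably expressing human TLR7 or TLR8 carry a SEAP reporter driven by a minimal IFN-β promoter fused to 5×NF-κB and AP-1 sites. Compounds at […] final, 16 to 22 h. SEAP in the medium measured with Quanti-blue at OD650, and EC50 derived.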
# human TLR7 = target: T2, human TLR7 (Homo sapiens, UniProt Q9NYK1); test: HEK-Blue hTLR7 SEAP reporter gene agonist assay; type: cell-based; conditions: HEK-Blue hTLR7 cells, 16 to 22 hours incubation
# T2 construct: host or cells: HEK-Blue hTLR7 (HEK293-derived reporter cells)
# T2 sequence (Q9NYK1 27-1049): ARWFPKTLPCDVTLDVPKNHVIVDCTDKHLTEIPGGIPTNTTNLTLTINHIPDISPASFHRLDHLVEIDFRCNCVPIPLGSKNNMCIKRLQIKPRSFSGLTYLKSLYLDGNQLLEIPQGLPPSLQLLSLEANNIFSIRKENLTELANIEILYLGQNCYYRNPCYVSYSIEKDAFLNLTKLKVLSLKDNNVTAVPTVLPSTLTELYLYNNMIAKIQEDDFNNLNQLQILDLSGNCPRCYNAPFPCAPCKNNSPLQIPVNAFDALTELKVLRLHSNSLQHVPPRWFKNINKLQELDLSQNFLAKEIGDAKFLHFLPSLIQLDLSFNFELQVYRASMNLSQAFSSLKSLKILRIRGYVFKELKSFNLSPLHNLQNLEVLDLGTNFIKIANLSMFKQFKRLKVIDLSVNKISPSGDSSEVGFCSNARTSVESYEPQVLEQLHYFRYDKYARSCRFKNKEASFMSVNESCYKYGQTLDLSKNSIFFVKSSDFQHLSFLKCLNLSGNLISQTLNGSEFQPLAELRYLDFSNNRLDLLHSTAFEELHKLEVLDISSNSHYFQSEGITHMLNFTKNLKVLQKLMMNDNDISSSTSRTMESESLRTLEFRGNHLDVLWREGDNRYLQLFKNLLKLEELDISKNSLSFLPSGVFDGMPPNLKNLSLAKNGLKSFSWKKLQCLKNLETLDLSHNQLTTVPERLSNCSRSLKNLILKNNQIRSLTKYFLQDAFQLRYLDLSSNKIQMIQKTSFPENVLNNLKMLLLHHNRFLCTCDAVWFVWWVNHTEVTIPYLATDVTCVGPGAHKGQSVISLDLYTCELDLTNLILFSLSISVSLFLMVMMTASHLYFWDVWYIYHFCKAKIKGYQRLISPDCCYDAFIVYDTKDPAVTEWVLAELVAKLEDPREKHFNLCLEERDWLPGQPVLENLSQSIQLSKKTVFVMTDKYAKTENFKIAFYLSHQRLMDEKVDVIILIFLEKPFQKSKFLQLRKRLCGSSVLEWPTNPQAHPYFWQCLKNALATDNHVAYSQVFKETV
# Summary of the method: as §1
SMILES,EC50 (human TLR8) [µM],EC50 (human TLR7) [µM]
"CCC[C@@H](C)Nc1nc(N)nc2ccn(Cc3ccc(CN(CCC)CCO)cc3OC)c(=O)c12 [Compound I-165, (R)-2-amino-6-(4-(((2-hydroxyethyl)(propyl)amino)methyl)-2-methoxybenzyl)-4-(pentan-2-ylamino)pyrido[4,3-d]pyrimidin-5(6H)-one]",0.06,0.04
"CCC[C@@H](C)Nc1nc(N)nc2ccn(Cc3ccc(CN(CCO)CCO)cc3OC)c(=O)c12 [Compound I-166, (R)-2-amino-6-(4-((bis(2-hydroxyethyl)amino)methyl)-2-methoxybenzyl)-4-(pentan-2-ylamino)pyrido[4,3-d]pyrimidin-5(6H)-one]",0.03,0.03
"CCC[C@@H](CO)Nc1nc(N)nc2ccn(Cc3ccc(CN4CCCC4)cc3Cl)c(=O)c12 [Compound I-168, (S)-2-amino-6-(2-chloro-4-(pyrrolidin-1-ylmethyl)benzyl)-4-((1-hydroxypentan-2-yl)amino)pyrido[4,3-d]pyrimidin-5(6H)-one]",0.01,0.04
"CCC[C@@H](CO)Nc1nc(N)nc2ccn(Cc3ccc(CN4CCCC4)cc3C)c(=O)c12 [Compound I-169, (S)-2-amino-4-((1-hydroxypentan-2-yl)amino)-6-(2-methyl-4-(pyrrolidin-1-ylmethyl)benzyl)pyrido[4,3-d]pyrimidin-5(6H)-one]",0.02,0.07
"CCC[C@@H](C)Nc1nc(N)nc2ccn(Cc3ccc(CN4CCN(C)CC4)cc3OC)c(=O)c12 [Compound I-179, (R)-2-amino-6-(2-methoxy-4-((4-methylpiperazin-1-yl)methyl)benzyl)-4-(pentan-2-ylamino)pyrido[4,3-d]pyrimidin-5(6H)-one]",0.058,0.091
"CCC[C@@H](C)Nc1nc(N)nc2ccn(Cc3ccc(C(=O)N4CCNCC4)cc3OC)c(=O)c12 [Compound I-180, (R)-2-amino-6-(2-methoxy-4-(piperazine-1-carbonyl)benzyl)-4-(pentan-2-ylamino)pyrido[4,3-d]pyrimidin-5(6H)-one]",0.012,0.038
"CCC[C@@H](C)Nc1nc(N)nc2ccn(Cc3ccc(C(=O)N4CC5CC(C4)N5)cc3OC)c(=O)c12 [Compound I-181, 6-(4-(3,6-diazabicyclo[3.1.1]heptane-3-carbonyl)-2-methoxybenzyl)-2-amino-4-(((R)-pentan-2-yl)amino)pyrido[4,3-d]pyrimidin-5(6H)-one]",0.007,0.03
"CCC[C@@H](C)Nc1nc(N)nc2ccn(Cc3ccc(C(=O)N4CCN(C)CC4)cc3OC)c(=O)c12 [Compound I-182, (R)-2-amino-6-(2-methoxy-4-(4-methylpiperazine-1-carbonyl)benzyl)-4-(pentan-2-ylamino)pyrido[4,3-d]pyrimidin-5(6H)-one]",0.058,0.054
"CCC[C@@H](C)Nc1nc(N)nc2ccn(Cc3ccc(C(=O)N4CCN(C(C)C)CC4)cc3OC)c(=O)c12 [Compound I-183, (R)-2-amino-6-(4-(4-isopropylpiperazine-1-carbonyl)-2-methoxybenzyl)-4-(pentan-2-ylamino)pyrido[4,3-d]pyrimidin-5(6H)-one]",0.083,0.091
"CCC[C@@H](C)Nc1nc(N)nc2ccn(Cc3ccc(CN4CCNCC4)cc3OC)c(=O)c12 [Compound I-184, (R)-2-amino-6-(2-methoxy-4-(piperazin-1-ylmethyl)benzyl)-4-(pentan-2-ylamino)pyrido[4,3-d]pyrimidin-5(6H)-one]",0.107,0.096
"CCCCNc1nc(N)nc2cc(C)n(Cc3ccc(CN4CCCC4)cc3)c(=O)c12 [Compound I-187, 2-amino-4-(butylamino)-7-methyl-6-(4-(pyrrolidin-1-ylmethyl)benzyl)pyrido[4,3-d]pyrimidin-5(6H)-one]",0.064,0.145
